{"source": "patent US11576913B2", "about": "(priority 2018, dated 2023)", "key": {"[1]": {"test_system": "healthy, non-dependent, recreational sedative users", "experiment": "Human abuse potential study, Drug Liking VAS", "assay_type": "in vivo", "settings": "for Drug Liking VAS - EMAX LSMean: N = 50, 100 point bipolar scale", "description": "This study was designed as a randomized, single-dose, double-blinded, double dummy, crossover study. The study population was healthy, nondependent recreational polydrug users with a history of Central Nervous System (CNS) depressant use.\nSubjects were screened no more than 28 days before check-in of period 1. Study drug was administered in each period according to the study randomization schedule. During Qualification, there was a minimum 24 hour washout period between each study drug administration. During the Treatment phase, there was a minimum 48-hour washout period between each study drug administration. Subjects were confined to the unit the day prior to, and for at least approximately 24 hours following, study drug administration during each period. If subjects were discharged between treatment periods, subjects returned to the unit the day prior to dosing.\nThe Qualification Phase was designed to ensure that polydrug abusing subjects with self-reported recreational CNS depressant/sedative drug experience were able to tolerate and discriminate between orally administered triazolam tablets and placebo as well as to report positive subjective effects of the drug in a controlled laboratory setting. This phase was also used to exclude “placebo responders”, i.e., subjects who report subjective effects of placebo. This phase also helped familiarize subjects with, and trained them in the use of, various scales and questionnaires that measure subjective effects.\nThe comparators in an abuse potential study are typically controlled substances from the same pharmacologic class as the investigational drug. However, Compound (1C) is a novel drug class for which no controlled substances/drugs of abuse are available for comparison. […] There was no evidence of other effects of interest to abusers, such as perceptual disturbances or stimulation. […] Placebo control was used to establish the frequency and magnitude of changes in clinical endpoints that may occur in the absence of active treatment as well as to minimize subject and investigator bias.\nIn all of the study phases, treatments were blinded to the greatest extent possible to reduce potential bias during data collection and evaluation of clinical endpoints. Because study subjects were recreational drug users and familiar with the effects of the drug substances being studied, the double-dummy technique was be used in the Treatment Phase to maintain blinding. Subjects received tablets orally in each treatment period. Placebo was matched in size and shape to each of the tablet types, and a method to blind subjects will be employed.\nFor each phase, subjects received treatments according to the randomization schema. During the Treatment Phase, subjects were be randomized to 1 of sequences in a 6×6 Williams square crossover design.\nCompound (1C) was administered orally in an immediate release tablet comprising the pharmaceutically acceptable excipients croscarmellose sodium (FMC Health and Nutrition, Philadelphia, Pa.), hydroxypropylcellulose (Ashland Inc., Covington, Ky.), microcrystalline cellulose (Dupont, Chicago, Ill.), mannitol (SPI Pharma, Wilmington, Del.), magnesium stearate (PlusPharma Inc., Vista, Calif.), and sodium lauryl sulfate (BASF Corp, Upper St. Clair, Pa.). […] Placebo tablets matching the Compound (1C) tablets were orally administered in the same way. The placebo tablets comprised the above-described pharmaceutically acceptable excipients but with no Compound (1C). Triazolam was administered at a dose of 0.5 or 1 mg. Trial endpoints are provided below.\nPeak Maximum Effect (Emax) for Drug Liking (“at this moment”) visual analog scale (“VAS”), was measured by study participants providing a score on a 100 point bipolar scale with 100 as strong liking, 50 as the neutral point of neither liking nor disliking, and 0 as strong disliking. […]"}, "[2]": {"test_system": "healthy, non-dependent, recreational sedative users", "experiment": "Human abuse potential study, adverse events and tolerability", "assay_type": "in vivo", "settings": "for Amnesia / Ataxia / Diplopia / Dizziness / Euphoric mood / Headache / Hiccups / Nausea / Somnolence / Vision blurred: N = 50", "description": "Adverse events were coded to MedDRA terms. Data for AEs were analyzed using the treatment-emergent signs and symptoms (TESS) philosophy. Treatment-emergent signs and symptoms are defined as AEs that: • Emerge during treatment, having been absent at pretreatment; or • Reemerge during treatment, having been present at pretreatment but stopped prior to treatment; or • Worsen in intensity during treatment relative to the pretreatment state, when the AE is continuous.\nSubjects were counted only once in the incidence count for a specific MedDRA Preferred Term, although a MedDRA Preferred Term might be reported more than once for a particular subject. Separate summaries will be provided for Treatment-emergent AEs (“TEAEs”) by maximum intensity (mild, moderate, severe) and relationship (yes, no) to study drug. A TEAE was considered related to study drug if the investigator reported the event to be “definitely, probably, possibly, or unlikely” related to treatment on the CRF."}, "[3]": {"test_system": "subjects suffering from the Insomnia Disorder adult insomnia", "assay_type": "in vivo, human", "settings": "for mean change in DSST score net of placebo, compared with suvorexant: about 9 hours after administration, vs 10, 20 and 40 mg suvorexant, FIG. 11", "description": "Literature data for indications of sleep efficacy and attendant residual effects after suvorexant administration, orally administered as BELSOMRA tablets at a single dose of 10 mg, 20 mg, and 40 mg, was available. Literature data for indications of sleep efficacy after zolpidem administration, orally administered as AMBIEN CR tablets, i.e., an extended-release tablet comprising the tartrate salt, in a single dose of 12.5 mg was also available. […] Additionally, the data shown in FIG. 8 through FIG. 11 are for the treatment effect net of placebo."}}, "note": "Entries after “also recorded” stand apart in the source; their conditions may differ. Like-named read-outs stand apart in the source and are kept apart here.", "data": [{"smiles": "O=C(O)c1nc2ccccc2n([C@H]2C[C@H]3CCC[C@@H](C2)N3C2CC3CCCC(C3)C2)c1=O", "note": "(stereo partly shown) [Compound (1C)]", "values": [{"measurement": "Drug Liking VAS - EMAX Diff from Placebo LSMean", "setting": "[1]; 1 mg", "value": 3.0, "unit": "points"}, {"measurement": "Drug liking compared with Triazolam 0.5 and 1 mg", "setting": "[1]; 1 mg", "value": "statistically smaller; also recorded: statistically less; also recorded: (1C) 1 mg was significantly lower than"}, {"measurement": "Drug liking compared with placebo (words)", "setting": "[1]; 1 mg", "value": "not significantly greater than placebo; also recorded: placebo was similar to placebo (upper bound"}, {"measurement": "Drug Liking VAS - EMAX LSMean", "setting": "[1]; 1 mg single oral dose", "value": 58.1}, {"measurement": "Drug Liking VAS - EMAX Diff from Placebo LSMean", "setting": "[1]; 6 mg", "value": 17.7, "unit": "points"}, {"measurement": "Drug liking compared with Triazolam 0.5 and 1 mg", "setting": "[1]; 6 mg", "value": "not statistically different"}, {"measurement": "Drug liking compared with placebo (words)", "setting": "[1]; 6 mg", "value": "greater drug liking than placebo; also recorded: significantly greater"}, {"measurement": "Drug Liking VAS - EMAX LSMean", "setting": "[1]; 6 mg single oral dose", "value": 72.82}, {"measurement": "Drug Liking VAS - EMAX Diff from Placebo LSMean", "setting": "[1]; 10 mg", "value": 21.2, "unit": "points"}, {"measurement": "Drug liking compared with Triazolam 0.5 and 1 mg", "setting": "[1]; 10 mg", "value": "not statistically different"}, {"measurement": "Drug liking compared with placebo (words)", "setting": "[1]; 10 mg", "value": "greater drug liking than placebo; also recorded: significantly greater"}, {"measurement": "Drug Liking VAS - EMAX LSMean", "setting": "[1]; 10 mg single oral dose", "value": 76.4}, {"measurement": "Drug Liking VAS - EMAX, Triazolam 0.5 mg - Cmpd. (1C) LSMean", "setting": "[1]; Cmpd. (1C) 1 mg", "value": 17.4}, {"measurement": "Drug Liking VAS - EMAX, Triazolam 1 mg - Cmpd. (1C) LSMean", "setting": "[1]; Cmpd. (1C) 1 mg", "value": 20.5}, {"measurement": "Drug Liking VAS - EMAX, Triazolam 0.5 mg - Cmpd. (1C) LSMean", "setting": "[1]; Cmpd. (1C) 6 mg", "value": 2.7}, {"measurement": "Drug Liking VAS - EMAX, Triazolam 1 mg - Cmpd. (1C) LSMean", "setting": "[1]; Cmpd. (1C) 6 mg", "value": 5.8}, {"measurement": "Drug Liking VAS - EMAX, Triazolam 0.5 mg - Cmpd. (1C) LSMean", "setting": "[1]; Cmpd. (1C) 10 mg", "value": "−0.8"}, {"measurement": "Drug Liking VAS - EMAX, Triazolam 1 mg - Cmpd. (1C) LSMean", "setting": "[1]; Cmpd. (1C) 10 mg", "value": 2.3}, {"measurement": "AE profile compared with triazolam", "setting": "[2]; 1 mg", "value": "more preferable AE profile than triazolam"}, {"measurement": "Amnesia", "setting": "[2]; 1 mg", "value": "0 n (%)"}, {"measurement": "Ataxia", "setting": "[2]; 1 mg", "value": "1 (2) n (%)"}, {"measurement": "Diplopia", "setting": "[2]; 1 mg", "value": "0 n (%)"}, {"measurement": "Dizziness", "setting": "[2]; 1 mg", "value": "2 (4) n (%)"}, {"measurement": "Euphoric mood", "setting": "[2]; 1 mg", "value": "0 n (%)"}, {"measurement": "Headache", "setting": "[2]; 1 mg", "value": "5 (10) n (%)"}, {"measurement": "Hiccups", "setting": "[2]; 1 mg", "value": "0 n (%)"}, {"measurement": "Nausea", "setting": "[2]; 1 mg", "value": "1 (2) n (%)"}, {"measurement": "Somnolence", "setting": "[2]; 1 mg", "value": "20 (40) n (%)"}, {"measurement": "Vision blurred", "setting": "[2]; 1 mg", "value": "0 n (%)"}, {"measurement": "AE profile compared with triazolam", "setting": "[2]; 6 mg", "value": "AE profile than triazolam, and Compound (1C) at 6 and 10 mg doses had similar profiles as triazolam"}, {"measurement": "certain AE results (ataxia, hiccups, amnesia, diplopia) compared with triazolam at therapeutic doses", "setting": "[2]; 6 mg (supratherapeutic dose)", "value": "superior to triazolam"}, {"measurement": "Amnesia", "setting": "[2]; 6 mg", "value": "0 n (%)"}, {"measurement": "Ataxia", "setting": "[2]; 6 mg", "value": "7 (14) n (%)"}, {"measurement": "Diplopia", "setting": "[2]; 6 mg", "value": "0 n (%)"}, {"measurement": "Dizziness", "setting": "[2]; 6 mg", "value": "3 (6) n (%)"}, {"measurement": "Euphoric mood", "setting": "[2]; 6 mg", "value": "1 (2) n (%)"}, {"measurement": "Headache", "setting": "[2]; 6 mg", "value": "2 (4) n (%)"}, {"measurement": "Hiccups", "setting": "[2]; 6 mg", "value": "0 n (%)"}, {"measurement": "Nausea", "setting": "[2]; 6 mg", "value": "2 (4) n (%)"}, {"measurement": "Somnolence", "setting": "[2]; 6 mg", "value": "45 (90) n (%)"}, {"measurement": "Vision blurred", "setting": "[2]; 6 mg", "value": "2 (4) n (%)"}, {"measurement": "AE profile compared with triazolam", "setting": "[2]; 10 mg", "value": "AE profile than triazolam, and Compound (1C) at 6 and 10 mg doses had similar profiles as triazolam"}, {"measurement": "certain AE results (ataxia, hiccups, amnesia, diplopia) compared with triazolam at therapeutic doses", "setting": "[2]; 10 mg (supratherapeutic dose)", "value": "superior to triazolam"}, {"measurement": "Amnesia", "setting": "[2]; 10 mg", "value": "0 n (%)"}, {"measurement": "Ataxia", "setting": "[2]; 10 mg", "value": "13 (26) n (%)"}, {"measurement": "Diplopia", "setting": "[2]; 10 mg", "value": "2 (4) n (%)"}, {"measurement": "Dizziness", "setting": "[2]; 10 mg", "value": "5 (10) n (%)"}, {"measurement": "Euphoric mood", "setting": "[2]; 10 mg", "value": "1 (2) n (%)"}, {"measurement": "Headache", "setting": "[2]; 10 mg", "value": "2 (4) n (%)"}, {"measurement": "Hiccups", "setting": "[2]; 10 mg", "value": "0 n (%)"}, {"measurement": "Nausea", "setting": "[2]; 10 mg", "value": "2 (4) n (%)"}, {"measurement": "Somnolence", "setting": "[2]; 10 mg", "value": "47 (94) n (%)"}, {"measurement": "Vision blurred", "setting": "[2]; 10 mg", "value": "3 (6) n (%)"}, {"measurement": "safety and tolerability", "setting": "[2]; doses 1, 6 and 10 mg", "value": "well tolerated"}, {"measurement": "mean improvement in WASO net of placebo, compared with suvorexant", "setting": "[3]; 0.5 mg Compound (1C) vs 10 mg or 20 mg suvorexant, Night 1, FIG. 9", "value": "nearly comparable to"}, {"measurement": "mean improvement in WASO net of placebo, compared with zolpidem", "setting": "[3]; 0.5 mg Compound (1C) vs 12.5 mg zolpidem, Night 1, FIG. 9", "value": "far greater than"}, {"measurement": "mean change in DSST score net of placebo, compared with suvorexant", "setting": "[3]; 0.5 mg", "value": "small and comparable"}, {"measurement": "mean improvement in SE net of placebo, compared with suvorexant", "setting": "[3]; 1.0 mg Compound (1C) vs 10 mg suvorexant, Night 1, FIG. 8", "value": "greater than"}, {"measurement": "mean improvement in SE net of placebo, compared with zolpidem", "setting": "[3]; 1.0 mg Compound (1C) vs 12.5 mg zolpidem, Night 1, FIG. 8", "value": "greater than"}, {"measurement": "mean improvement in WASO net of placebo, compared with suvorexant", "setting": "[3]; 1.0 mg Compound (1C) vs 40 mg suvorexant, Night 1, FIG. 9", "value": "nearly comparable to"}, {"measurement": "mean change in DSST score net of placebo, compared with suvorexant", "setting": "[3]; 1.0 mg", "value": "small and comparable"}, {"measurement": "mean improvement in LPS net of placebo, compared with suvorexant", "setting": "[3]; 6.0 mg Compound (1C) vs 10 mg suvorexant, Night 1, FIG. 10", "value": "comparable to"}, {"measurement": "mean improvement in SE net of placebo, compared with suvorexant", "setting": "[3]; 6.0 mg Compound (1C) vs 40 mg suvorexant, Night 1, FIG. 8", "value": "comparable to"}, {"measurement": "mean improvement in LPS net of placebo, compared with suvorexant or zolpidem", "setting": "[3]; up to 6.0 mg Compound (1C) vs 20 mg suvorexant or 12.5 mg zolpidem, Night 1, FIG. 10", "value": "not as great as"}]}]}
